Assay results: US9186344B2, “Glycogen or polysaccharide storage disease treatment method” (Baylor Research Institute, priority 2004, dated 2015)

Legend:
[1] = test system: Adult-Onset Glycogen Storage Disease II (Pompe's) patient; experiment: Plasma amino acids during initiation of anaplerotic therapy (C7 diet), Example 1 patient; assay type: in vivo, human; conditions: for Plasma ASPARTATE: normal (0-10); for Plasma CITRULLINE: normal (11-51); for Plasma ARGININE: normal (20-122); for Plasma TRYPTOPHAN: normal (23-86); for Plasma TYROSINE: normal (30-100); for Plasma PHENYLALANINE: normal (35-83); for Plasma ORNITHINE: normal (36-118); for Plasma ISOLEUCINE: normal (39-119); for Plasma LEUCINE: normal (60-204); for Plasma VALINE: normal (108-295); for Plasma ALANINE: normal (162-572); for Plasma GLUTAMINE: normal (424-720); for Plasma Total Amino Acids: normal (1540-4415)
Description: (§1) Clinical and Biochemical Course on Therapy. […] Esophageal dysmotility was documented. A percutaneous endoscopic gastrostomy (PEG) was placed on the sixth hospital day.
(§2) The diet was based on vivonex and ˜1500 Kcal was given by nasogastric tube, on admission. […] Total caloric intake was raised from ˜1500 to 1700 to 1900 per day with these dietary changes during […] 33 day admission.
The levels of Alanine and Glutamine were low compared to the adult normal ranges. While the levels of the branched-chain amino acids (BCAA=Leucine, Valine, & Isoleucine) were within the adult normal ranges. The reduced levels of Alanine and Glutamine have been observed often in this disease and has led to the high protein—low carbohydrate diet and/or alanine supplementation. […] Glutamine increased nearly 2-fold as did the branched chain amino acids (BCAAs). The levels of these amino acids remained in the normal range while receiving the C7 diet. However, the diet was interrupted on day 4 & 5 while awaiting placement of the PEG for gastrostomy feeding. The levels of each of these amino acids promptly fell to admission levels (Table 2: 65 & 84 hour samples). With resumption of the diet via gastrostomy, all levels returned to (or above) the normal ranges in 24 hours. These amino acid levels remained normal on this odd-carbon triglyceride diet therapy.

[2] = test system: adult-onset GSD II (acid maltase deficiency) patient; experiment: Clinical course and pCO2 on triheptanoin diet, Example 1 patient; assay type: in vivo, human
Description: During the subsequent 2 years, the patient experienced progressive muscle weakness, affecting strength and endurance, swallowing and producing urgency for urination and defecation. The patient's breathing became a major issue and weight had decreased from ˜127 to 101 lbs (46 Kg) over this interval. […] Home O2 was started and upon respiratory arrest was intubated and unsuccessfully extubated leading to emergency admission lasting one month. Following informed consent, the patient agreed to enter an approved Institutional Review Board (IRB) Protocol for dietary therapy with triheptanoin oil.
as §1, §2
The patient began ambulating by the 10th day that improved steadily, showering with assistance by the 28th day. Pneumonia on day 17 responded to therapy and was extubated on day 23. They were discharged on bilevel positive airway pressure (BIPAP), the C7 diet, and carnitine supplement.

[3] = test system: GSDII patient; experiment: Urinary organic acids, blood acylcarnitines and plasma amino acids, Example 2 patient; assay type: in vivo, human; conditions: thirteen hours after initiating the C7 diet
Procedure: Organic Acids may be measured as follows. Organic acids in urine specimens are determined with isolation by Liquid Partition Chromatography (LPC) and quantitative Gas Chromatography-Mass Spectrometry (GCMS) using an internal standard. The specimen is derivatized to form pentafluorobenzyl oximes (PFBO) of oxo-acids and the organic acids isolated by Liquid Partition chromatography on silicic acid hydrated with dilute sulfuric acid and eluted with mixtures of tert-Amyl alcohol and chloroform. After drying, the organic acids are derivatized to form volatile trimethylsilyl (TMS) derivatives for separation by capillary Gas Chromatography (GC) with temperature programming. Detection is by Mass Spectrometry (MS) with identification of the organic acids by their mass spectra. Organic acids are quantified by peak areas of reconstructed ion chromatograms with internal standards and calibration curves.
Acylcarnitine Profiles. Acylcarnitines and carnitine levels in dried blood spots (dbs), plasma and amniotic fluid by automated electrospray tandem mass spectrometry Acylcarnitines are extracted from blood spots, plasmas and amniotic fluid with methanol containing stable isotopically labeled internal standards. The extract is derivatized to form butyl esters. An automated sample introduction system delivers the samples to the electrospray tandem mass spectrometer (ESI-MS/MS) operating in the multiple channel analysis mode in which acylcarnitines are identified, profiled, and quantified with stable isotopically labeled internal standards. This test also provides quantification of free, sum of acylcarnitines, and total carnitine levels.
Citrate supplementation was continued throughout the treatment.

[4] = test system: polysaccharide storage myopathy (PSSM); experiment: Treatment of horses with polysaccharide storage myopathy with triheptanoin diet; assay type: in vivo, horse
Procedure: Treatment of Horses. […] The first was an 8 year old mare who was unable to walk or exercise without severe muscle pain, rhabdomyolysis, and “locking up.” The owners were approaching “putting the animal down” (killing it). […] A second horse was encountered at 4 months with proven polysaccharide storage myopathy (PSSM) that was not able to walk adequately or nurse from its mother. The owners were prepared to kill the animal but decided to try the triheptanoin diet first. […] A third horse, also an 8 year old mare, developed PSSM and “locked up.” She was no longer available to ride and could no longer jump.

[5] = thirteen hours after initiating the C7 diet
[6] = on C7 diet and carnitine supplement

`CCCCCCC(=O)OCC(COC(=O)CCCCCC)OC(=O)CCCCCC` [C7, triheptanoin] was tested, and the “Plasma ASPARTATE” value ([1]; 13 hrs, C7 = 1.0 gm/Kg) was 44 µM, the “Plasma CITRULLINE” value ([1]; 13 hrs, C7 = 1.0 gm/Kg) was 1 µM and the “Plasma ARGININE” value ([1]; 13 hrs, C7 = 1.0 gm/Kg) was 96 µM. For the same molecule, the “Plasma TRYPTOPHAN” value ([1]; 13 hrs, C7 = 1.0 gm/Kg) was 121 µM, the “Plasma TYROSINE” value ([1]; 13 hrs, C7 = 1.0 gm/Kg) was 110 µM and the “Plasma PHENYLALANINE” value ([1]; 13 hrs, C7 = 1.0 gm/Kg) was 101 µM. For the same molecule, the “Plasma ORNITHINE” value ([1]; 13 hrs, C7 = 1.0 gm/Kg) was 78 µM, the “Plasma ISOLEUCINE” value ([1]; 13 hrs, C7 = 1.0 gm/Kg) was 81 uM/L and the “Plasma LEUCINE” value ([1]; 13 hrs, C7 = 1.0 gm/Kg) was 154 uM/L. For the same molecule, the “Plasma VALINE” value ([1]; 13 hrs, C7 = 1.0 gm/Kg) was 333 uM/L, the “Plasma ALANINE” value ([1]; 13 hrs, C7 = 1.0 gm/Kg) was 551 uM/L and the “Plasma GLUTAMINE” value ([1]; 13 hrs, C7 = 1.0 gm/Kg) was 827 uM/L. For the same molecule, the “Plasma Total Amino Acids” value ([1]; 13 hrs, C7 = 1.0 gm/Kg) was 3673 µM, the “Plasma ASPARTATE” value ([1]; 41 hrs, C7 = 1.0 gm/Kg) was 112 µM and the “Plasma CITRULLINE” value ([1]; 41 hrs, C7 = 1.0 gm/Kg) was 43 µM. The “Plasma ARGININE” value ([1]; 41 hrs, C7 = 1.0 gm/Kg) was 93 µM, the “Plasma TRYPTOPHAN” value ([1]; 41 hrs, C7 = 1.0 gm/Kg) was 43 µM and the “Plasma TYROSINE” value ([1]; 41 hrs, C7 = 1.0 gm/Kg) was 62 µM. For the same molecule, the “Plasma PHENYLALANINE” value ([1]; 41 hrs, C7 = 1.0 gm/Kg) was 156 µM, the “Plasma ORNITHINE” value ([1]; 41 hrs, C7 = 1.0 gm/Kg) was 163 µM and the “Plasma ISOLEUCINE” value ([1]; 41 hrs, C7 = 1.0 gm/Kg) was 138 uM/L. For the same molecule, the “Plasma LEUCINE” value ([1]; 41 hrs, C7 = 1.0 gm/Kg) was 266 uM/L, the “Plasma VALINE” value ([1]; 41 hrs, C7 = 1.0 gm/Kg) was 384 uM/L and the “Plasma ALANINE” value ([1]; 41 hrs, C7 = 1.0 gm/Kg) was 450 uM/L. The “Plasma GLUTAMINE” value ([1]; 41 hrs, C7 = 1.0 gm/Kg) was 424 uM/L, the “Plasma Total Amino Acids” value ([1]; 41 hrs, C7 = 1.0 gm/Kg) was 4160 µM and the “Plasma ASPARTATE” value ([1]; 108 hrs, C7 = 1.5 gm/Kg) was 50 µM. For the same molecule, the “Plasma CITRULLINE” value ([1]; 108 hrs, C7 = 1.5 gm/Kg) was 35 µM, the “Plasma ARGININE” value ([1]; 108 hrs, C7 = 1.5 gm/Kg) was 102 µM and the “Plasma TRYPTOPHAN” value ([1]; 108 hrs, C7 = 1.5 gm/Kg) was 40 µM. For the same molecule, the “Plasma TYROSINE” value ([1]; 108 hrs, C7 = 1.5 gm/Kg) was 56 µM, the “Plasma PHENYLALANINE” value ([1]; 108 hrs, C7 = 1.5 gm/Kg) was 90 µM and the “Plasma ORNITHINE” value ([1]; 108 hrs, C7 = 1.5 gm/Kg) was 122 µM. The “Plasma ISOLEUCINE” value ([1]; 108 hrs, C7 = 1.5 gm/Kg) was 144 uM/L, the “Plasma LEUCINE” value ([1]; 108 hrs, C7 = 1.5 gm/Kg) was 238 uM/L and the “Plasma VALINE” value ([1]; 108 hrs, C7 = 1.5 gm/Kg) was 304 uM/L. For the same molecule, the “Plasma ALANINE” value ([1]; 108 hrs, C7 = 1.5 gm/Kg) was 307 uM/L, the “Plasma GLUTAMINE” value ([1]; 108 hrs, C7 = 1.5 gm/Kg) was 584 uM/L and the “Plasma Total Amino Acids” value ([1]; 108 hrs, C7 = 1.5 gm/Kg) was 3568 µM. For the same molecule, the “Plasma ASPARTATE” value ([1]; 132 hrs, C7 = 1.5 gm/Kg) was 42 µM, the “Plasma CITRULLINE” value ([1]; 132 hrs, C7 = 1.5 gm/Kg) was 25 µM and the “Plasma ARGININE” value ([1]; 132 hrs, C7 = 1.5 gm/Kg) was 97 µM. The “Plasma TRYPTOPHAN” value ([1]; 132 hrs, C7 = 1.5 gm/Kg) was 40 µM, the “Plasma TYROSINE” value ([1]; 132 hrs, C7 = 1.5 gm/Kg) was 46 µM and the “Plasma PHENYLALANINE” value ([1]; 132 hrs, C7 = 1.5 gm/Kg) was 84 µM. The “Plasma ORNITHINE” value ([1]; 132 hrs, C7 = 1.5 gm/Kg) was 95 µM, the “Plasma ISOLEUCINE” value ([1]; 132 hrs, C7 = 1.5 gm/Kg) was 128 uM/L and the “Plasma LEUCINE” value ([1]; 132 hrs, C7 = 1.5 gm/Kg) was 220 uM/L. The “Plasma VALINE” value ([1]; 132 hrs, C7 = 1.5 gm/Kg) was 269 uM/L, the “Plasma ALANINE” value ([1]; 132 hrs, C7 = 1.5 gm/Kg) was 277 uM/L and the “Plasma GLUTAMINE” value ([1]; 132 hrs, C7 = 1.5 gm/Kg) was 519 uM/L. For the same molecule, the “Plasma Total Amino Acids” value ([1]; 132 hrs, C7 = 1.5 gm/Kg) was 3296 µM, the “time to restoration of Alanine and Glutamine deficits” value ([1]; FIG. 5, Triheptanoin diet only) was no more than 13 h and the “time for amino acid levels to return to (or above) normal ranges” value ([1]; after resumption of the diet via gastrostomy) was no more than 24 h. For the same molecule, the “increase of plasma Glutamine” value [1, 5] was roughly 2 fold, the “increase of plasma branched chain amino acids (BCAAs)” value [1, 5] was roughly 2 fold and the “increase of plasma alanine level” value ([1]; thirteen hours after initiating the C7 diet by nasogastric tube) was 4 fold. For the same molecule, the “pCO2 (35-45)” value ([2]; Hospital Day 1, C7 26% Kcal) was 43, the “pCO2 (35-45)” value ([2]; Hospital Day 4, C7 35% Kcal) was 51 and the “pCO2 (35-45)” value ([2]; Hospital Day 7, C7 35% Kcal) was 42. For the same molecule, the “pCO2 (35-45)” value ([2]; Hospital Day 23, C7 40% Kcal, extubated) was 48, the “pCO2 (35-45)” value ([2]; Hospital Day 33, C7 40% Kcal, discharge) was 44 and the “gastrostomy feeds stopped (swallowing improved)” value ([2]; after discharge) was 7 months. For the same molecule, the patient weight ([2]; by 15 months post-discharge, 46 Kg on admission) was 60 kg, the day of extubation ([2]; hospital admission on C7 diet) was 23 days and the “return to work half-time after discharge” value [2, 6] was 5 weeks. For the same molecule, the “working full-time after discharge” value [2, 6] was no more than 10 weeks, the full vital capacity ([2]; post-discharge follow-up) was 40-45 % of predicted and the “urgency for urination and defecation” value ([2]; within 13 hours of beginning the C7 diet) was “had ceased and remained normal for the rest of the admission”. The pCO2 ([2]; within 13 hours of beginning the C7 diet, fell from 68, normal 35-45) was 43, the “increase of plasma BCAA's” value [3] was roughly 2 fold and the “increase of plasma Glutamine” value [3] was roughly 2 fold. For the same molecule, the “increase of plasma alanine level” value [3] was 4 fold, the “time to become asymptomatic” value ([4]; first horse, 8 year old mare, triheptanoin in feed pellets) was no more than 30 days and the “blood enzyme levels related to muscle disease (including serum creatine phosphokinase)” value ([4]; second horse, 4 month foal) was “had normalized”. The “time to running and playing without muscle pain” value ([4]; second horse, 4 month foal) was no more than 24 h, the “symptoms after adjustment of the dose for weight gain” value ([4]; second horse, dose back to 2 grams/Kg body weight) was “eliminated all symptoms” and the clinical status ([4]; third horse, 8 year old mare, 1.0 gm/Kg/day, one week of diet treatment) was “asymptomatic with normal blood chemistry levels”.
